How the values were obtained:
Test in all cases: biochemical
PLK1 = PLK1 (Homo sapiens, UniProt P53350); parameters: University of Dundee kinase panel, per cent inhibition of phosphorylation at ATP Km
Protocol: The METi and RAFi were screened against kinase panels (SelectScreen, Invitrogen; University of Dundee, Division of Signal Transduction Therapy, UK; Upstate Biotechnology/Millipore, Billerica, MA). In these selectivity assays the concentration of ATP was set to the Km value of ATP for each kinase tested to allow for a relative potency comparison between the various kinases. The compounds were tested at 1 µM final concentration. […] (A) Kinase selectivity screen (KSS) performed at Upstate Biotechnology. […] (B) KSS performed at University of Dundee (Division of Signal Transduction Therapy). […] (PDF) Click here for additional data file. Supplementary file pone.0039653.s002.pdf: Figure S2 Kinase Selectivity Screen of RAFi. (A) Kinase selectivity screen (KSS) performed at University of Dundee (Division of Signal Transduction Therapy). Values in % inhibition of phosphorylation given 1 µM of RAFi compared to control. (B) KSS performed at Invitrogen (Selectscreen Service) compared to control. Values in % inhibition of phosphorylation given 1 µM of RAFi. (C) Cell based dose response kinase inhibition of indicated kinases by RAFi. (PDF) Click here for additional data file.

PBK = PBK (Homo sapiens, UniProt Q96KB5); parameters: University of Dundee kinase panel, percent inhibition of phosphorylation at 1 uM RAFi, ATP at Km; settings: read-out: Dundee KSS %inh at 1 uM
Protocol: (§1) The METi and RAFi were screened against kinase panels (SelectScreen, Invitrogen; University of Dundee, Division of Signal Transduction Therapy, UK; Upstate Biotechnology/Millipore, Billerica, MA). In these selectivity assays the concentration of ATP was set to the Km value of ATP for each kinase tested to allow for a relative potency comparison between the various kinases. The compounds were tested at 1 µM final concentration. […] Supplementary file pone.0039653.s002.pdf: Figure S2 Kinase Selectivity Screen of RAFi. (A) Kinase selectivity screen (KSS) performed at University of Dundee (Division of Signal Transduction Therapy). Values in % inhibition of phosphorylation given 1 µM of RAFi compared to control. (B) KSS performed at Invitrogen (Selectscreen Service) compared to control. Values in % inhibition of phosphorylation given 1 µM of RAFi. (C) Cell based dose response kinase inhibition of indicated kinases by RAFi. (PDF) Click here for additional data file.

SGK = target: T1, SGK (Homo sapiens, UniProt O00141); parameters: University of Dundee kinase panel, percent inhibition of phosphorylation at 1 uM RAFi, ATP at Km; settings: read-out: Dundee KSS %inh at 1 uM
T1 construct: gene SGK1
Protocol: as §1

mouse ERK2 = target: T2, mouse ERK2 (Mus musculus, UniProt P63085); parameters: University of Dundee kinase panel, percent inhibition of phosphorylation at 1 uM RAFi, ATP at Km; settings: read-out: Dundee KSS %inh at 1 uM
T2 construct: gene Mapk1
Protocol: as §1

JNK2 = target: T3, JNK2 (Homo sapiens, UniProt P45984); parameters: University of Dundee kinase panel, percent inhibition of phosphorylation at 1 uM RAFi, ATP at Km; settings: read-out: Dundee KSS %inh at 1 uM
T3 construct: gene MAPK9
Protocol: as §1

JNK1a = target: T4, JNK1a (Homo sapiens, UniProt P45983); parameters: University of Dundee kinase panel, percent inhibition of phosphorylation at 1 uM RAFi, ATP at Km; settings: read-out: Dundee KSS %inh at 1 uM
T4 construct: gene MAPK8; isoform alpha
Protocol: as §1

PIM3 = PIM3 (Homo sapiens, UniProt Q86V86); parameters: University of Dundee kinase panel, percent inhibition of phosphorylation at 1 uM RAFi, ATP at Km; settings: read-out: Dundee KSS %inh at 1 uM
Protocol: as §1

CaMK1a = target: T5, CaMK1a (Homo sapiens, UniProt Q14012); parameters: University of Dundee kinase panel, percent inhibition of phosphorylation at 1 uM RAFi, ATP at Km; settings: read-out: Dundee KSS %inh at 1 uM
T5 construct: gene CAMK1
Protocol: as §1

PKD1 = target: T6, PKD1 (Homo sapiens, UniProt Q15139); parameters: University of Dundee kinase panel, percent inhibition of phosphorylation at 1 uM RAFi, ATP at Km; settings: read-out: Dundee KSS %inh at 1 uM
T6 construct: gene PRKD1
Protocol: as §1

mouse LCK = mouse LCK (Mus musculus, UniProt P06240); parameters: University of Dundee kinase panel, percent inhibition of phosphorylation at 1 uM RAFi, ATP at Km; settings: read-out: Dundee KSS %inh at 1 uM
Protocol: as §1

NEK6 = NEK6 (Homo sapiens, UniProt Q9HC98); parameters: University of Dundee kinase panel, percent inhibition of phosphorylation at 1 uM RAFi, ATP at Km; settings: read-out: Dundee KSS %inh at 1 uM
Protocol: as §1

CSK = CSK (Homo sapiens, UniProt P41240); parameters: University of Dundee kinase panel, percent inhibition of phosphorylation at 1 uM RAFi, ATP at Km; settings: read-out: Dundee KSS %inh at 1 uM
Protocol: as §1

MST2 = target: T7, MST2 (Homo sapiens, UniProt Q13188); parameters: University of Dundee kinase panel, percent inhibition of phosphorylation at 1 uM RAFi, ATP at Km; settings: read-out: Dundee KSS %inh at 1 uM
T7 construct: gene STK3
Protocol: as §1

p38g = target: T8, p38g (Homo sapiens, UniProt P53778); parameters: University of Dundee kinase panel, percent inhibition of phosphorylation at 1 uM RAFi, ATP at Km; settings: read-out: Dundee KSS %inh at 1 uM
T8 construct: gene MAPK12
Protocol: as §1

rat ROCKII = target: T9, rat ROCKII (Rattus norvegicus, UniProt Q62868); parameters: University of Dundee kinase panel, percent inhibition of phosphorylation at 1 uM RAFi, ATP at Km; settings: read-out: Dundee KSS %inh at 1 uM
T9 construct: gene Rock2
Protocol: as §1

MNK2 = target: T10, MNK2 (Homo sapiens, UniProt Q9HBH9); parameters: University of Dundee kinase panel, percent inhibition of phosphorylation at 1 uM RAFi, ATP at Km; settings: read-out: Dundee KSS %inh at 1 uM
T10 construct: gene MKNK2
Protocol: as §1

Sequence of PLK1 (P53350 whole entry): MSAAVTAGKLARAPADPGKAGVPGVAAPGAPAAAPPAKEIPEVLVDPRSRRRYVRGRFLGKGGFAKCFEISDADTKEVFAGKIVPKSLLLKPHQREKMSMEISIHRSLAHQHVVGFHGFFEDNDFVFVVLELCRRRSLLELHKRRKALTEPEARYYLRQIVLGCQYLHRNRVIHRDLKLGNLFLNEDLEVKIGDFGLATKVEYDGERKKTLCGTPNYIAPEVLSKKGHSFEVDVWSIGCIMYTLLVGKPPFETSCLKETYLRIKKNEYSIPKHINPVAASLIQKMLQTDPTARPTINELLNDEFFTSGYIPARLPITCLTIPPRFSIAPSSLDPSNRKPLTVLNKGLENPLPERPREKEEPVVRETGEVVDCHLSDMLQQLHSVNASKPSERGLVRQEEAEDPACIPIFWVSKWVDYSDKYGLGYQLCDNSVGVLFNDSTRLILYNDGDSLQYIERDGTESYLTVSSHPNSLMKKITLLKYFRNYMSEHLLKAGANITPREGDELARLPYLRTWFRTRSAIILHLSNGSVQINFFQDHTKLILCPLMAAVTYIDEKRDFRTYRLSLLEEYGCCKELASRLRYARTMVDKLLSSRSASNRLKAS
T2 sequence (P63085 whole entry): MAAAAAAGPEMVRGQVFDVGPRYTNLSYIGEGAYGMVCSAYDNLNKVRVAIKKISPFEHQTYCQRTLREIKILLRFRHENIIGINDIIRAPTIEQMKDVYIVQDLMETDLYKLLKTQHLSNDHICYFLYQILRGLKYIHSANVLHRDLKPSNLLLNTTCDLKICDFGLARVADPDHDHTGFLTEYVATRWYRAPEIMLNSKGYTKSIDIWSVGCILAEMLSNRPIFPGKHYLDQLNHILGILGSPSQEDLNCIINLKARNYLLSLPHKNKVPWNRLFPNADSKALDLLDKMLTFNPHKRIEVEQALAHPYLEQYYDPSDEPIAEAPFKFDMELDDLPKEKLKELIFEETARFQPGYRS
T3 sequence (P45984 whole entry): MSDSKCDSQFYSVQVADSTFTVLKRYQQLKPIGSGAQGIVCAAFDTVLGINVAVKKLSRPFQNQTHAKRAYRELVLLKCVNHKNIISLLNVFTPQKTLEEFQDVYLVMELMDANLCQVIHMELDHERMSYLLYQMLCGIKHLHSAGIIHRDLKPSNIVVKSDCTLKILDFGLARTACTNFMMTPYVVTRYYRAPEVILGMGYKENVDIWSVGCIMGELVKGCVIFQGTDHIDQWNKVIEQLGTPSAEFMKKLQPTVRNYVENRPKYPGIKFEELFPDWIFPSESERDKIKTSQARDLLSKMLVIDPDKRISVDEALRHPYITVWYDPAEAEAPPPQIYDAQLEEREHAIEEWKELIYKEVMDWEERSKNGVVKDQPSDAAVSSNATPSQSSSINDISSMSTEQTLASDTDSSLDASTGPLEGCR
T6 sequence (Q15139 whole entry): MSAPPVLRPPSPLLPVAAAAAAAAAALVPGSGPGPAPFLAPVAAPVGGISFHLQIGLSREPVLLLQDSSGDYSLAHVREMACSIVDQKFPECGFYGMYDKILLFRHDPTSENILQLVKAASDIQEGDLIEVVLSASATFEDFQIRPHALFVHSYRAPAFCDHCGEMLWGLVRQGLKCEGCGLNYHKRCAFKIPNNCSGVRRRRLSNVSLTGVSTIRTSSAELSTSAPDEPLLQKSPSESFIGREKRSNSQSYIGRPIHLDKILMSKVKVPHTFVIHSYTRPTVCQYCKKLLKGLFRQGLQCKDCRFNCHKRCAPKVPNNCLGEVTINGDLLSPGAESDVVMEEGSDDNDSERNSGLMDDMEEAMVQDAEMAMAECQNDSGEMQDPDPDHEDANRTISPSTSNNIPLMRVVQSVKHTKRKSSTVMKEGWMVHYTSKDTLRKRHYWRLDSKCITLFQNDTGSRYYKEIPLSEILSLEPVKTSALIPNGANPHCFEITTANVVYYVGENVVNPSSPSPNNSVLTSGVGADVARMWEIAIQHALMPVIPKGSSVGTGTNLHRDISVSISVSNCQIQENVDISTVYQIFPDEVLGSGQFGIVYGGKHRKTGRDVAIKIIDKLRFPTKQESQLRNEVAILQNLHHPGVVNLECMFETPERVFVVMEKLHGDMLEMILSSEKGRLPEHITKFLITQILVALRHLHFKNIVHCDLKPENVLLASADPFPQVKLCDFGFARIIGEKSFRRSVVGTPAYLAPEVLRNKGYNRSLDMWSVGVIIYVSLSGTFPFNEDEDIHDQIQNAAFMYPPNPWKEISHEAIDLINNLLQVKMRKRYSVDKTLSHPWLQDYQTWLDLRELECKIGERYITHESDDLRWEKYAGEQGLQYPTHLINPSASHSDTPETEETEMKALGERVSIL
T1 sequence (O00141 whole entry): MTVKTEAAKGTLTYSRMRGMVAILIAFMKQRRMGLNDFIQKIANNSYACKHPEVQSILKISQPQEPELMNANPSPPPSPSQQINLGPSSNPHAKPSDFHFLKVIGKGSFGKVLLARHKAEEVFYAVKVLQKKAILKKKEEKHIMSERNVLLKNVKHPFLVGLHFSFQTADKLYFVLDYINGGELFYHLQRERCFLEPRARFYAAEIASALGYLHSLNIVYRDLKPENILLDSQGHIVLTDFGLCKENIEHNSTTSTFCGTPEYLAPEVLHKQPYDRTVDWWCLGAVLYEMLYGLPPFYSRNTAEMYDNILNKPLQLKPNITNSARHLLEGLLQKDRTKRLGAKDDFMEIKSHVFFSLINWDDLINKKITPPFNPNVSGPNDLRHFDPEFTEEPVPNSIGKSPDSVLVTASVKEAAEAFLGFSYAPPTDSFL
Sequence of NEK6 (Q9HC98 whole entry): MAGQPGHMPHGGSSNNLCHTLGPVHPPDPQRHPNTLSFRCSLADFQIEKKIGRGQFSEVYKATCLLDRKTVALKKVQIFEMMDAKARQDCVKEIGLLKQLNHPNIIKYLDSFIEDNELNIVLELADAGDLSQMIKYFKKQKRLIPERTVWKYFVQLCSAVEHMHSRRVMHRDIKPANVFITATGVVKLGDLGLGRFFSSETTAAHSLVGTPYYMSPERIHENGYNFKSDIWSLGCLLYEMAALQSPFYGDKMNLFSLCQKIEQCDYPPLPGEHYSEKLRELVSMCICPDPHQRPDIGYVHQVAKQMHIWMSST
Sequence of mouse LCK (P06240 whole entry): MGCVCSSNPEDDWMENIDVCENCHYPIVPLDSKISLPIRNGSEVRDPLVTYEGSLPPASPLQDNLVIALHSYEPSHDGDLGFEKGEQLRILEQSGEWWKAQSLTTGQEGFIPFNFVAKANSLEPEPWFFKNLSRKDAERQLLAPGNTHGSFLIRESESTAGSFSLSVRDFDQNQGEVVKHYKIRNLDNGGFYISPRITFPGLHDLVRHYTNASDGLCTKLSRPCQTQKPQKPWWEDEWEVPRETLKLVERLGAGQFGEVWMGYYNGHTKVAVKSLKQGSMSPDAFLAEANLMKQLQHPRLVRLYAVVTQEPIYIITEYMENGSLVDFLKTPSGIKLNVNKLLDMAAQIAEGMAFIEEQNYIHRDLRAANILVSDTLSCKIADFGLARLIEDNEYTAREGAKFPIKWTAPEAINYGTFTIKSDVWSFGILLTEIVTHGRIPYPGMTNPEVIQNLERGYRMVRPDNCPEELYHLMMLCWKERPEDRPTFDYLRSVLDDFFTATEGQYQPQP
T10 sequence (Q9HBH9 whole entry): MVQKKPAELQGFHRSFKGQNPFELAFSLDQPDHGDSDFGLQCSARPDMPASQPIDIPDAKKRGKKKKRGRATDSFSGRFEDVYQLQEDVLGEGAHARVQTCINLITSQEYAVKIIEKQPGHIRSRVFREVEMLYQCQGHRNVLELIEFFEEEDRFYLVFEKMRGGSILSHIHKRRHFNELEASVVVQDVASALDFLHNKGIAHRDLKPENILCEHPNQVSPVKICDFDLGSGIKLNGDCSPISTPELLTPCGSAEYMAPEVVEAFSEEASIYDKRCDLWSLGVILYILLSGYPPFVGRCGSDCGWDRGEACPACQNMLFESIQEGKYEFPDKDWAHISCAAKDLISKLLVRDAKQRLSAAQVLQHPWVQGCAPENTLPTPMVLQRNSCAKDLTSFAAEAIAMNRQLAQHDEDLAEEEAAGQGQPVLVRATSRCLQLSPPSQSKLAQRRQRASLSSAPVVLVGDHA
Sequence of PBK (Q96KB5 whole entry): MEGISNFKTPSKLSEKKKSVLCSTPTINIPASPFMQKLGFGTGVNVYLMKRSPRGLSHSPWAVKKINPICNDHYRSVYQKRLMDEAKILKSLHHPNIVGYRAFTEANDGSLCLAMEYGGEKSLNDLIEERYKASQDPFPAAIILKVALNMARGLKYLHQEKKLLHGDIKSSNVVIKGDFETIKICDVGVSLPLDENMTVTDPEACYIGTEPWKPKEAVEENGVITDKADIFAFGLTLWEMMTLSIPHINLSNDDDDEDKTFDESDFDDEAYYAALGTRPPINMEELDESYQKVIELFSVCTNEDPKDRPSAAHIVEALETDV

| Dundee KSS % inhibition at 1uM (PLK1; inhibitor, Dundee KSS % inhibition at 1uM, 1 µM) | inhibition at 1 µM (PLK1; read-out: Dundee KSS % inhibition at 1uM) | inhibition at 1 µM (PBK) | inhibition at 1 µM (SGK) | inhibition at 1 µM (mouse ERK2) | inhibition at 1 µM (JNK2) | inhibition at 1 µM (JNK1a) | inhibition at 1 µM (PIM3) | inhibition at 1 µM (CaMK1a) | inhibition at 1 µM (PKD1) | inhibition at 1 µM (mouse LCK) | inhibition at 1 µM (NEK6) | inhibition at 1 µM (CSK) | inhibition at 1 µM (MST2) | inhibition at 1 µM (p38g) | inhibition at 1 µM (rat ROCKII) | inhibition at 1 µM (MNK2) | Compound |
| --- | --- | --- | --- | --- | --- | --- | --- | --- | --- | --- | --- | --- | --- | --- | --- | --- | --- |
| 10.1% | 13.6% |  |  |  |  |  |  |  |  |  |  |  |  |  |  |  | OCCn1cc(-c2cnc3nnn(Cc4ccc5ncccc5c4)c3n2)cn1 [METi, PF-04217903] |
|  |  | -2% | 4% | 48% | 95% | 62% | 3% | 18% | 47% | 22% | 13% | -4% | 63% | 4% | 25% | 12% | N#CCCNc1nccc(-c2cn(CC(F)F)nc2-c2cnc3[nH]ccc3c2)n1 [RAFi, PF-04880594] |

Reference: article PMC3382171 (PLoS ONE, 2012)
